Experimental data: US20230257374A1, “NOVEL KRAS G12C PROTEIN INHIBITOR, PREPARATION METHOD THEREFOR, AND USE THEREOF” (INNOVENT BIOLOGICS (SUZHOU) CO., LTD., priority 2019, published 2023)

How the values were obtained:
[1] = human, plasma, 5 μM
in vitro [2] = conditions: microsomes, pH 7.4
Method: To examine the in vitro metabolic stability of the test compounds in liver microsomes of different species, representative compounds were selected, and their stability was evaluated by measuring the concentration of the test compounds in the incubation system using LC/MS/MS and calculating their intrinsic clearance in the microsome system.
The method is specifically as follows: each compound was first dissolved in DMSO to prepare a 200 μM working solution and added to the system solution at the time of testing to form a solution with a final concentration of 1 μM.
The microsomes were stored in a −80° C. freezer.
Preparation of incubation system: an incubation system was prepared as described in the table below.
25 μL, of NADPH or phosphate buffered saline was transferred to the incubation system described above, and 2 μL, of 200 μM of the test compound or verapamil was added. The sample with NADPH added was prepared in duplicate; the NADPH negative sample was prepared in single parallel. 30 μL, of suspension was taken at 0.5, 5, 15, 30 and 60 minutes. The reaction system was terminated by adding 180 μL, of acetonitrile containing an internal standard and vortexed for 10 min. […] 100 μL, of the supernatant was transferred to a feeding plate, and 100 μL, of purified water was added. The mixture was well mixed for UPLC-MS/MS analysis.
The results based on the data were obtained by calculation according to the peak area ratio, and the peak area was detected through an extracted ion chromatogram.
The slope value (k) was determined by linear fitting of the natural logarithm of drug elimination percentage over time.

in vitro [3] = conditions: human, plasma
[4] = system: NCI-H358 tumor (K-RAS G12C mutation); type: in vivo, BALB/c nude mice
Method: The cells were digested with trypsin-EDTA twice a week for passaging as per conventional practice. When the cell saturation reached 80%-90% and a required amount was achieved, the cells were collected and counted for later use. […] 5% DMSO/5% Solutol/90% water was used as a blank control. 3) Tumor inoculation and drug administration: BALB/c nude mice, female, 6-8 weeks old, weighing 18-20 g. The experiment started after 3-7 days of adaptive feeding. 0.1 mL of NCI-H358 cells (5×10^6 cells) were inoculated subcutaneously on the right back of each mouse. The mice were grouped for administration when the average tumor volume reached approximately 150 mm^3. The animals were weighed before administration and the tumor volume was measured. Grouping was randomly performed according to the tumor volume.
Animals were monitored daily for health and death, and routine examinations include observation of the effect of tumor growth and drug treatment on the daily performance of the animals, such as behavioral activities, food and water intake, weight changes (measured once every other day), appearance, or other abnormal conditions. Animal mortality and side effects within each group were recorded based on the number of animals in the group.
Tumor diameters were measured 2-3 times weekly using a vernier caliper.
The tumor volume was calculated as follows: […]
where a and b represent the long and short diameters of the tumor, respectively.
The anti-tumor therapeutic effect of the compound was evaluated by tumor growth inhibition rate TGI (%) or relative tumor proliferation rate T/C (%).
TGI (%) was calculated as follows: […]
T/C (%) was calculated as follows: […]
where TRTV represents the relative tumor volume of the treatment group; CRTV represents the relative tumor volume of the solvent control group.
Based on the results of tumor measurement, the relative tumor volume (RTV) was calculated as follows: […]
where V0 represents the average tumor volume measured at the time of grouping and administration (i.e., d0), Vt represents the average tumor volume in a certain measurement, and TRTV and CRTV take the data on the same day.
After the completion of the experiment, tumors were weighed, and the percentage of Tweight/Cweight was calculated, where Tweight and Cweight represent the tumor weights of the treatment group and the solvent control group, respectively.
Data calculation and analysis: T test was employed for comparison between two groups. One-way ANOVA was employed for comparison between three or more groups. If there is a significant difference in F-values, multiple comparisons should be made after ANOVA analysis. All data analyses were performed with SPSS 17.0. p<0.05 was defined as a significant difference.

[5] = system: H358 cell line (K-RAS G12C); assay: cells; type: cell-based, human; conditions: Homo sapiens, NCI-H358, 96 h, read-out: H358 (K-RAS G12C) IC50
Method: (§1) a) On day 1, seed cells were placed in T75 a flask. b) On day 3, the medium was taken out and washed once with DPBS. c) Cells were trypsinized with 2 mL TrypLE™ Express enzyme at room temperature (RT) or 37° C. until cells detached. d) 5 mL of fresh medium was added to suspend the cells, and then the suspension was centrifuged at 1000 rpm and room temperature for 5 min. e) The supernatant was discarded, and the cells were resuspended in 5 mL of fresh medium and counted using Countess™ H. f) The cells were seeded back into the T75 flask for further culture or placed into an assay plate for 3D cell proliferation assay.
(§2) The cells were seeded at a density of 600 cells/well in a 384-well plate with 40 μL of medium per well and a final DMSO concentration of 0.5%. b) On day 4, a 3D CTG reagent was added to each well, followed by shaking at room temperature for 1 h. c) The signals were recorded using Envision.
(§3) a) Robustness was examined using 0.5% DMSO and data of blank control medium: H=mean (DMSO); L=mean (medium); SD (H)=STDEV (DMSO); SD (L)=STDEV (medium);
(§4) Y=peak valley value+(peak top value−peak valley value)/(1+10^((Log IC50−X)×HillSlope));
(§5) X: logarithm of compound concentration; Y: percent inhibition (% inhibition); Peak top and peak valley values: the plateau period units are the same as Y; log IC50: the same logarithmic unit as X; HillSlope: slope coefficient or Hill slope.

[6] = system: H1373 cell line (K-RAS G12C); assay: cells; type: cell-based; conditions: Homo sapiens, NCI-H1373, 96 h, read-out: H1373 (K-RAS G12C) IC50
Method: as §1, §2, §3, §4, §5

[7] = system: MIA PaCa-2 cell line (K-RAS G12C); assay: cells; type: cell-based; conditions: Homo sapiens, MIA PaCa-2, 96 h, read-out: MIA PaCa-2 (K-RAS G12C) IC50
Method: as §1, §2, §3, §4, §5

[8] = Day 0 (at grouping, before administration), 15 mg/kg PO QD group

## [2H]C([2H])([2H])N1CCC[C@H]1COc1nc2c(c(N3CCN(C(=O)C=C)[C@@H](CC#N)C3)n1)CCN(c1cccc3cccc(Cl)c13)C2 [Compound 41, 2-((S)-1-acryloyl-4-(7-(8-chloronaphthalene-1-yl)-2-(((S)-1-(methyl-d3)pyrrolidin-2-yl)methoxy)-5,6,7,8-tetrahydropyrido[3,4-d]pyrimidin-4-yl)piperazin-2-yl)acetonitrile]
[1]; 0 h
  Remaining percentage (%) 0 min: 100.00%
[1]; 0.5 h
  Remaining percentage (%) 30 min: 96.01%
[1]; 1 h
  Remaining percentage (%) 60 min: 75.85%
[1]; 2 h
  Remaining percentage (%) 120 min: 56.99%
[1]; 3 h
  Remaining percentage (%) 180 min: 34.80%
[1]; 4 h
  Remaining percentage (%) 240 min: 26.83%
In vitro [2]; ICR (CD-1), mouse
  half-life at 1 μM: 14.6 min
  microsomal CLint at 1 μM: 95.3 µL/min/mg
In vitro [2]; human
  half-life at 1 μM: 26 min
  microsomal CLint at 1 μM: 53.4 µL/min/mg
In vitro [3]
  half-life at 5 μM: 119 min
[4]; [8]
  Day 0 Body weight (g) Waverage ± SEM: 22.7 ± 0.4 g
  Day 0 Tumor volume (mm^3) Vaverage ± SEM: 151 ± 8 mm^3
[4]; Day 21, 15 mg/kg PO QD
  Day 21 Body weight (g) Waverage ± SEM: 23.4 ± 0.6 g
  Day 21 Tumor volume (mm^3) Vaverage ± SEM: 168 ± 20 mm^3
  Tumor inhibition rate TGI (%): 97.0%
[4]; Day 21, 15 mg/kg PO QD, animals with regression / group of 8
  Tumor regression: 2/8
[5]
  IC50: 0.28 nM
[6]
  IC50: 0.18 nM
[7]
  IC50: 0.31 nM
